The values below come from patent US6599499B1, “Uses of diterpenoid triepoxides as an anti-proliferative agent” (priority 1999, dated 2003).

Entries after “also recorded” stand apart in the source; their conditions may differ.

Data set [1] relates to DNA strand breaks.
Data set [2] deals with Dx5 cells. Description: Cell viability by annexin and propidium iodide staining/FACS with z-VAD.fmk, Dx5 cells. The conditions noted are these: Homo sapiens, read-out: cell viability in PG490-treated Dx5 cells. As for the experimental part:
(§1) Cell death reagents and assays. Cell viability was measured by an MTT assay as recently described (Lee et al. (1999) J. Biol. Chem. 274:13451-13455. z-VAD-fluoromethylketone (z-VAD.fmk) was obtained from Alexis Biochemicals, San Diego, Calif. The effect of z-VAD.fmk on cell viability was analyzed by annexin and propidium iodide staining followed by FACS analysis according to the manufacturer's protocol (Clontech Laboratories, Palo Alto, Calif.). The analysis of apoptosis in histologic sections was done by terminal deoxynucleotidyl transferase (TdT)-mediated d-UTP nick end labeling (TUNEL) of slides from paraffin sections of day 3 tumors harvested from the mice 24 h after the second of two daily treatments with PG490-88 or saline. TUNEL staining was done according to the manufacturer's protocol (Boehringer Mannheim, Indianapolis, Ind.) and then the histology slides were counterstained with methyl green. DNA was isolated from cells for analysis of internucleosomal DNA laddering followed by agarose gel electrophoresis and ethidium bromide staining.

Data set [3] relates to p53 mRNA. Description: p53 mRNA by Northern blot in HT1080 cells. The format is cell-based, human. As for the experimental part: Northern Blot Analysis. RNA was prepared from HT1080 cells using RNeasy Mini Kit from Qiagen Inc. (Valencia, Calif.). cDNAs for Northern blot analysis for p21 and p53 were prepared using RT-PCR with […] of total RNA. The following primer pairs were used: p53, (SEQ ID NO:11) 5′-[…]-3′ and (SEQ ID NO:12) 5′-[…]-3′; p21, (SEQ ID NO:13) 5′-[…]-3′ and (SEQ ID NO:14) 5′-[…]-3′; and glyceraldehyde-3-phosphate dehydrogenase, (SEQ ID NO:15) 5′-[…]-3′ and 5′-(SEQ ID NO:16) […]-3′.

Data set [4] relates to Dx5 cells. Description: Cell survival of Bcl-2 or vector transfected Dx5 cells (X-gal staining). The format is cell-based, human. The conditions noted are these: PG490 20 ng/ml, 36 h.
Experimental: Cells were cultured in the appropriate medium with 10% FCS supplemented with L-glutamine, penicillin and streptomycin. To examine the effect of Bcl-2 on cell survival, the Bcl-2 expression vector or the vector alone was co-transfected with a β galactosidase expression vector (Invitrogen, Carlsbad, Calif.) at a 5:1 ratio using lipofectamine plus (GIBCO BRL, Gaithersburg, Md.) into Dx5 cells. After 36 h cells were stained with 5-bromo4-chloro-3-indolyl □-D-galactopyranoside (X-gal). Cell survival was calculated as number of total cells-blue cells/total number of cells in a 90 mm^2 area from duplicate plates and expressed as the mean ±S.D.
Bcl-2 or vector control was transiently transfected into Dx5 cells followed by the addition of PG490 (20 ng/ml) and stained 36 h later with X-gal. % cell survival was calculated as total cells-blue cells/total cells×100. z-VAD.fmk (100 µM) was added to Dx5 cells 1 h prior to the addition of PG490 (20 ng/ml) and cells were harvested for analysis of cell viability 36 h later by annexin and propidium iodide staining followed by FACS analysis. Data represents the mean of three replicates from two independent experiments ±S.D.
Data set [5] has as its system H23 tumor cells. Description: Nude mouse xenograft, prevention of H23 tumor formation. The format is in vivo, nude mice. As for the experimental part: Nude mouse xenograft model. […] Tumor cells were grown and harvested as described above.
PG490-88 prevents human tumor development in nude mice. The results reported above show cytotoxicity of PG490 on tumor cells in vitro. To extend these studies to an in vivo setting using human tumor cell xenografts, PG490-88 was used, a more easily administered, water soluble prodrug of PG490. H23 tumor cells were implanted intradermally in nude mice and the animals were left untreated or were injected IP daily with PG490-88 starting at the time of implantation. Tumors arose in 5/5 of the untreated mice but no tumors were observed after 5 or 7 weeks of dosing with PG490-88 at doses ranging from 0.25 to 0.75 mg/kg/day (Table 1). PG490-88 treatment was stopped after week 5 in 3 mice per group and was continued for an additional 2 weeks in 2 mice per group. A visible tumor arose during the sixth week in one animal in each group in which PG490-88 dosed at 0.5 mg/kg/day or less was stopped but no more visible tumors appeared in these groups after week 6 (Table 1).
Nude mice were implanted with H23 tumor cells (day 0). Mice were left untreated, or were injected IP with PG490-88 daily from the day of tumor cell implantation for 5 consecutive days per week. PG490-88 was administered for 5 weeks. The untreated group consisted of 5 mice. Three mice in each of the treatment groups received PG490-88 for 5 weeks, and 2 mice in each of these groups were given PG490-88 for 2 additional weeks (7 weeks total). The tumor appeared only in mice in which treatment had been stopped after 5 weeks.

Data set [6] relates to H23 human tumor cells. As for the experimental part:
as §1
Nude mouse xenograft model. Female NCr nude mice were purchased from Taconic, Germantown, N.Y., and were generally 20-24 grams when used. Mice were kept in autoclaved filter-top microisolator cages with autoclaved water and sterile food ad lib. The cages were maintained in an isolator unit providing filtered air (Lab Products, Inc., Maywood, N.J.). Tumor cells were grown and harvested as described above. NCr nude mice were injected intradermally with 5×10^6 tumor cells. In some experiments, treatment was initiated on the day of tumor cell implantation. […] Mice were treated IP daily for 5 days per week.
H23 tumor cells were implanted intradermally in nude mice. When the tumors reached approximately 100 mm^3, daily IP treatment with PG490-88 was initiated. […] The data in FIG. 3 represents the measurement of H23 tumor volume on day 14 after the initiation of treatment. Nude mice bearing xenografts of H23 human tumor cells were treated daily as shown. The data represent the means and the standard errors of the means of the tumor volumes as percent of the day 0 tumor volumes for each animal measured day 3, 6, 10 and 14 days after the initiation of treatment. There were 5 mice per group.

For data set [7] the following is noted: room temperature. As for the experimental part:
Stock solutions of PG490-88 (1 mg/ml) were prepared by dissolution in 0.9% NaCl and sterilized by microfiltration using 0.2 μm pore size filters (Supor Acrodisc 25, Gelman Sciences, Ann Arbor, Mich.). The PG490-88 stock solutions were diluted in 0.9% NaCl for IP administration.

The test system of data set [8] is NF-κB. Description: NF-κB transcriptional activity in HT1080 cells. The class given is cell-based, human.

The term viability denotes a per cent measure of how many cells are alive, often set against a control. Turning to `CC(C)[C@]12O[C@H]1[C@@H]1O[C@]13[C@]1(O[C@H]1C[C@H]1C4=C(CC[C@@]13C)C(=O)OC4)[C@@H]2O` [PG490, triptolide], in data set [1], the DNA strand breaks entry was “does not induce DNA strand breaks”. The viability at 0.02 µg/mL in data set [2] was determined as 15%. In data set [3], the “level of p53 mRNA” value is given as “not affected”. Further, the cell survival in data set [4] (overexpression of Bcl-2) worked out at 72%; in data set [4] (vector control) it was 15%.

Regarding `CC(C)[C@]12O[C@H]1[C@@H]1O[C@]13[C@]1(O[C@H]1C[C@H]1C4=C(CC[C@@]13C)C(=O)OC4)[C@@H]2OC(=O)CCC(=O)[O-].[Na+]` [PG490-88, 14-succinyl triptolide sodium salt], the “Number of mice in group with a tumor” value was 0/5 in data set [5] (PG490-88 0.25 mg/kg/day IP, Week 5); 1/5 in data set [5] (PG490-88 0.25 mg/kg/day IP, Week 6); 1/5 in data set [5] (PG490-88 0.25 mg/kg/day IP, Week 10); 0/5 in data set [5] (PG490-88 0.375 mg/kg/day IP, Week 5); 1/5 in data set [5] (PG490-88 0.375 mg/kg/day IP, Week 6); 1/5 in data set [5] (PG490-88 0.375 mg/kg/day IP, Week 10). Further, the “Number of mice in group with a tumor” value is on record as 0/5 in data set [5] (PG490-88 0.5 mg/kg/day IP, Week 5); 1/5 in data set [5] (PG490-88 0.5 mg/kg/day IP, Week 6); 1/5 in data set [5] (PG490-88 0.5 mg/kg/day IP, Week 10); 0/5 in data set [5] (PG490-88 0.75 mg/kg/day IP, Week 5); 0/5 in data set [5] (PG490-88 0.75 mg/kg/day IP, Week 6); 0/5 in data set [5] (PG490-88 0.75 mg/kg/day IP, Week 10). For the same compound, the H23 tumor formation result in data set [5] (PG490-88 0.75 mg/kg/day, 10 weeks of observation, sodium salt, 0.75 mg/kg/day) was “No visible tumors developed in any of the mice; also recorded: completely prevented”. For the same compound, the “decrease of mean tumor size from the initial value at day 0” value in data set [6] (PG490-88 0.75 mg/kg/day, day 14) is on record as 61%. Also, the “decrease of tumor size relative to the day 14 vehicle control” value in data set [6] (PG490-88 alone 0.75 mg/kg/day, combination PG490-88 0.25 mg/kg/day plus taxol 10 mg/kg/day) is listed as 97%. The “inhibition of tumor growth” value in data set [6] (daily IP PG490-88) is given as “inhibited tumor growth in a dose-dependent manner”. The “TUNEL staining of tumor sections” value in data set [6] (day 3 tumors, compared to saline-treated animals) was “many TUNEL-positive cells”. Further, the “tumor volume as % of the vehicle control” value in data set [6] (day 14, PG490-88 0.25 mg/kg/day, taxol 10 mg/kg/day, IP) came out at 21%. Further, the “half-life in mouse serum” value in data set [7] is reported as < 5 min.

In the case of `COc1cccc2c1C(=O)c1c(O)c3c(c(O)c1C2=O)C[C@@](O)(C(=O)CO)C[C@@H]3O[C@H]1C[C@H](N)[C@H](O)[C@H](C)O1` [doxorubicin, reference compound], the NF-κB transcriptional activity result in data set [8] was “did not induce”.
